≈ marks a conversion by molar mass, not a printed value.

Series [1] has as its system Bacillus cereus. As to the kind of experiment: Antibacterial activity against Bacillus cereus 709 Roma after 18 to 24 hrs by double microdilution method. Format: functional.
The test system of series [2] is Enterococcus faecalis. The series can be described thus: Antibacterial activity against Enterococcus faecalis ATCC 29212 after 18 to 24 hrs by double microdilution method. Format: functional. Background: In broth dilution the organism is exposed to a series of concentrations in liquid medium.
Series [3] has as its system Mycolicibacterium smegmatis. The series can be described thus: Antibacterial activity against Mycobacterium smegmatis ATCC 607 after 48 to 72 hrs by double microdilution method. It is filed as functional.
For series [4], the system named is Pseudomonas aeruginosa. As to the kind of experiment: Antibacterial activity against Pseudomonas aeruginosa ATCC 10145 after 18 to 24 hrs by double microdilution method. Format: functional.
For series [5], the system named is Staphylococcus aureus. The series can be described thus: Antibacterial activity against Staphylococcus aureus ATCC 25923 after 18 to 24 hrs by double microdilution method. Format: functional.
Series [6] concerns Yersinia pseudotuberculosis. As to the kind of experiment: Antibacterial activity against Yersinia pseudotuberculosis ATCC 911 after 18 to 24 hrs by double microdilution method. It is filed as functional.
For series [7], the system named is Escherichia coli. The series can be described thus: Antibacterial activity against Escherichia coli ATCC 35218 after 18 to 24 hrs by double microdilution method. It is filed as functional.
Series [8] relates to Staphylococcus aureus. The series can be described thus: Antibacterial activity against Staphylococcus aureus NCDC 110 after overnight incubation by single disc method. It is filed as functional.
The next series deals with Paenibacillus polymyxa. As to the kind of experiment: Antibacterial activity against Paenibacillus polymyxa NCDC 64 after overnight incubation by single disc method. It is filed as functional.
The subject of series [9] is Bacillus subtilis. The series can be described thus: Antibacterial activity against Bacillus subtilis NCDC 71 after overnight incubation by single disc method. Format: functional.
Series [10] relates to Escherichia coli. The series can be described thus: Antibacterial activity against Escherichia coli NCDC 134 after overnight incubation by single disc method. Format: functional.
Series [11] relates to Pseudomonas aeruginosa. The series can be described thus: Antibacterial activity against Pseudomonas aeruginosa NCDC105 after overnight incubation by single disc method. Format: functional.
Series [12] relates to Staphylococcus aureus. As to the kind of experiment: Potency index, ratio of ampicillin MIC to compound MIC for antibacterial activity against Staphylococcus aureus ATCC 25923. It is filed as functional.
Series [13] deals with Enterococcus faecalis. As to the kind of experiment: Potency index, ratio of ampicillin MIC to compound MIC for antibacterial activity against Enterococcus faecalis ATCC 29212. Format: functional.
The next series relates to Candida albicans. The series can be described thus: Potency index, ratio of ampicillin MIC to compound MIC for antifungal activity against Candida albicans ATCC 60193. Format: functional.
The subject of series [14] is Escherichia coli. The series can be described thus: Potency index, ratio of ampicillin MIC to compound MIC for antibacterial activity against Escherichia coli ATCC 25922. It is filed as functional.
In series [15] the test system is Yersinia pseudotuberculosis. As to the kind of experiment: Potency index, ratio of ampicillin MIC to compound MIC for antibacterial activity against Yersinia pseudotuberculosis ATCC 911. Format: functional.
Series [16] relates to Mycolicibacterium smegmatis. The series can be described thus: Potency index, ratio of ampicillin MIC to compound MIC for antibacterial activity against Mycobacterium smegmatis ATCC 607. It is filed as functional.
Series [17] relates to Pseudomonas aeruginosa. The series can be described thus: Potency index, ratio of ampicillin MIC to compound MIC for antibacterial activity against Pseudomonas aeruginosa ATCC 43288. Format: functional.
The test system of the next series is Saccharomyces cerevisiae. The series can be described thus: Potency index, ratio of ampicillin MIC to compound MIC for antifungal activity against Saccharomyces cerevisiae RSKK 251. It is filed as functional.
In series [18] the test system is Bacillus cereus. The series can be described thus: Potency index, ratio of ampicillin MIC to compound MIC for antibacterial activity against Bacillus cereus 709 Roma. It is filed as functional.
Series [19] deals with Staphylococcus epidermidis. The series can be described thus: Antibacterial activity against Staphylococcus epidermidis ATCC 12228 by agar dilution method. Format: functional. On the technique in general: In agar dilution the substance is mixed into plates at graded concentrations.
Series [20] deals with Klebsiella pneumoniae. The series can be described thus: Antibacterial activity against Klebsiella pneumoniae ATCC 10031 by agar dilution method. It is filed as functional.
Series [21] concerns Escherichia coli. The series can be described thus: Antibacterial activity against Escherichia coli ATCC 8739 by agar dilution method. It is filed as functional.
For series [22], the system named is Bacillus subtilis. The series can be described thus: Antibacterial activity against Bacillus subtilis PTCC 1023 by agar dilution method. Format: functional.
Series [23] deals with Staphylococcus aureus. As to the kind of experiment: Antibacterial activity against Staphylococcus aureus ATCC 6538P by agar dilution method. It is filed as functional.
Series [24] relates to Pseudomonas aeruginosa. The series can be described thus: Antibacterial activity against Pseudomonas aeruginosa ATCC 9027 by agar dilution method. Format: functional.
The subject of series [25] is Klebsiella pneumoniae. As to the kind of experiment: Antibacterial activity against Klebsiella pneumoniae ATCC […] by CLSI agar dilution method. Format: functional.
Series [26] relates to Staphylococcus aureus. As to the kind of experiment: Antibacterial activity against Staphylococcus aureus ATCC 29213 by CLSI agar dilution method. Format: functional.
Series [27] has as its system Staphylococcus epidermidis. As to the kind of experiment: Antibacterial activity against methicillin-sensitive Staphylococcus epidermidis by CLSI agar dilution method. It is filed as functional.
In series [28] the test system is Staphylococcus epidermidis. The series can be described thus: Antibacterial activity against Staphylococcus epidermidis ATCC 12228 by CLSI agar dilution method. Format: functional.
Series [29] has as its system Escherichia coli. The series can be described thus: Antibacterial activity against Escherichia coli ATCC […] by CLSI agar dilution method. It is filed as functional.
The subject of series [30] is Staphylococcus aureus. The series can be described thus: Antibacterial activity against methicillin-sensitive Staphylococcus aureus by CLSI agar dilution method. It is filed as functional.
A short description of series [31]: Partition coefficient, log P of the compound. The conditions noted are these: octanol/water. It is filed as physicochemical.
The subject of series [32] is Escherichia coli. As to the kind of experiment: In vivo antibacterial activity against Escherichia coli NCTC 10419 infected in po dosed mouse administered at 1 and 4 hrs post infection. Format: functional, organism-based.

As usually defined, the MIC is the least concentration at which growth counts as inhibited. A high value points to a less susceptible organism. Regarding `COc1ccccc1N1CCN(Cc2nn(CN3CCN(c4cc5c(cc4F)c(=O)c(C(=O)O)cn5C4CC4)CC3)c(=O)n2Cc2ccccc2)CC1`, the MIC (with Bacillus cereus [1]; against Enterococcus faecalis [2]; in [3]; in the series on Pseudomonas aeruginosa [4]; against Staphylococcus aureus [5]; in [6]) was below 0.24 µg/mL each time. In addition, the MIC with Escherichia coli [7] is below 0.24 µg/mL.
Turning to `O=C(CN1CCN(c2cc3c(cc2F)c(=O)c(C(=O)O)cn3C2CC2)CC1)Nc1nc2ccc([N+](=O)[O-])cc2s1`, the MIC against Staphylococcus aureus [8], in the series with Paenibacillus polymyxa, against Bacillus subtilis [9], against Escherichia coli [10] and with Pseudomonas aeruginosa [11] was 3 to 125 µg/mL (≈ 5.3 to 221 µM) throughout.
In the case of `O=C(O)c1cn(C2CC2)c2cc(N3CCN(Cn4nc(CN5CCSCC5)oc4=S)CC3)c(F)cc2c1=O`, the Ratio (with Staphylococcus aureus [12]; with Enterococcus faecalis [13]; in the series on Candida albicans; in the series on Escherichia coli [14]; in series [15]; in series [16]) was above 41 in each case. The Ratio with Pseudomonas aeruginosa [17], with Saccharomyces cerevisiae and in the series with Bacillus cereus [18] was above 41 in each case.
With `Cn1c([N+](=O)[O-])cnc1-c1nnc(N2CCN(c3cc4c(cc3F)c(=O)c(C(=O)O)cn4C3CC3)CC2)s1`, the MIC in series [19] lay within 0.008 to 0.015 µg/mL (≈ 0.0148 to 0.0278 µM); in the series with Klebsiella pneumoniae [20] it was 2 to 64 µg/mL (≈ 3.7 to 118 µM); against Escherichia coli [21], 2 to 64 µg/mL (≈ 3.7 to 118 µM); with Bacillus subtilis [22], 0.008 to 0.015 µg/mL (≈ 0.0148 to 0.0278 µM); against Staphylococcus aureus [23] it was 0.008 to 0.015 µg/mL (≈ 0.0148 to 0.0278 µM); in the series on Pseudomonas aeruginosa [24], 2 to 64 µg/mL (≈ 3.7 to 118 µM).
Take `COc1ccccc1N1CCN(Cc2nn(CN3CCN(c4cc5c(cc4F)c(=O)c(C(=O)O)cn5C4CC4)CC3)c(=S)n2Cc2ccccc2)CC1`: the minimal inhibitory concentration (MIC) (against Bacillus cereus [1]; against Enterococcus faecalis [2]; in series [3]; in the series on Pseudomonas aeruginosa [4]; in the series with Staphylococcus aureus [5]; in series [6]) was below 0.24 µg/mL throughout. In the series with Escherichia coli [7], this compound had an MIC below 0.24 µg/mL.
As to `CCn1c(CN2CCN(c3ccccc3OC)CC2)nn(CN2CCN(c3cc4c(cc3F)c(=O)c(C(=O)O)cn4C3CC3)CC2)c1=S`, the MIC (against Bacillus cereus [1]; in the series on Enterococcus faecalis [2]; in [3]; against Pseudomonas aeruginosa [4]; with Staphylococcus aureus [5]; in series [6]) was below 0.24 µg/mL each time. This compound gave an MIC with Escherichia coli [7] below 0.24 µg/mL.
`O=C(CN1CCN(c2cc3c(cc2F)c(=O)c(C(=O)O)cn3C2CC2)CC1)Nc1nc2c(Cl)ccc(Cl)c2s1`: the MIC against Staphylococcus aureus [8], against Paenibacillus polymyxa, with Bacillus subtilis [9], with Escherichia coli [10] and in the series on Pseudomonas aeruginosa [11] was 3 to 125 µg/mL (≈ 5.08 to 212 µM) each time.
Regarding `O=C(O)c1cn(C2CC2)c2cc(N3CCN(CC(O)Cn4cc([N+](=O)[O-])nc4Cl)CC3)c(F)cc2c1=O` (stereo unspecified), the MIC (against Klebsiella pneumoniae [25]; in the series with Staphylococcus aureus [26]; in series [27]; in series [28]; in the series with Escherichia coli [29]; against Staphylococcus aureus [30]) was 2 to 32 µg/mL (≈ 3.74 to 59.8 µM) in each case.
As usually defined, the logP is the decadic logarithm of the partition coefficient of the neutral form, usually between octanol and water. A high value points to a more lipophilic compound. Consider `CCCOC(=O)c1cn(C2CC2)c2cc(N3CCNCC3)c(F)cc2c1=O`, for which, in series [31], the logP came out at 0.437.
As for `COc1cc(Cc2cnc(/N=C3\C(=O)N(CN4CCN(c5cc6c(cc5F)c(=O)c(C(=O)O)cn6C5CC5)CC4)c4ccc(C)cc43)nc2N)cc(OC)c1OC`, the EC50 in the series with Escherichia coli [32] was 0.62 mg/kg.
As to `CCn1c(CNc2ccc(N3CCN(c4ccc(F)cc4)CC3)c(F)c2)nn(CN2CCN(c3cc4c(cc3F)c(=O)c(C(=O)O)cn4C3CC3)CC2)c1=S`, the MIC (in the series with Bacillus cereus [1]; in the series with Enterococcus faecalis [2]; in series [3]; against Pseudomonas aeruginosa [4]; against Staphylococcus aureus [5]; in [6]) was below 0.24 µg/mL throughout. For the same compound, in the series with Escherichia coli [7], the MIC is below 0.24 µg/mL.

The values above are taken from ChEMBL document CHEMBL4196012 (Eur J Med Chem, 2018).
